Where “and” joins values, the source holds several entries; their conditions need not be identical. Equal values may be shown once. Read-outs that look alike come from different tables or passages of the source.
Assays:
[1] = test system: healthy volunteers; experiment: Thorough QT study: triplicate 12-lead ECG, QTcN and heart rate change from baseline; assay type: in vivo, human; conditions: for Difference from placebo in mean QTcN change from baseline, mean (SE): 1−4 hours after dosing; for Placebo-corrected MCfB in QTcN from all ECGs (90% CI): 0.5-24 hours after dosing; for Maximum upper CI of placebo-corrected QTcN change from baseline over the time course: 90% CI; for Range of adjusted means of placebo-corrected QTcN change from baseline over the time course: time points 0.5-24 hours
Description: This thorough QT study (TQT) was a randomised, double-blind (moxifloxacin open), placebo-controlled crossover trial which included the following treatments: 25 mg and 200 mg empagliflozin (Boehringer Ingelheim Pharma GmbH & Co. KG); 400 mg open-label moxifloxacin (Avalox®; Bayer Vital, Leverkusen, Germany); and two placebo periods, with a washout of at least seven days between treatments. Trial medication was administered in the morning after an overnight fast.
ECG recordings were made at screening and at the end of the study as part of the safety evaluation. For the QTc evaluation, ECG recordings were made on study drug administration days (as ECG profiles) at 60, 50 and 40 minutes pre-dose (to derive the period-specific baseline), and at 0.5, 1, 1.5, 2, 2.5, 3, 4, 6, 8, 12 and 24 hours post-dose (last three time points omitted for moxifloxacin treatment). At each time point, triplicate standard 12-lead ECGs (I, II, III, aVR, aVL, aVF, V1–V6) of 10 seconds’ duration each were recorded after at least 5 minutes’ rest in the supine position using CardioSoft ECG recording machines (GE Healthcare, Freiburg, Germany). ECGs were sent to a central laboratory for evaluation of PR, QRS, RR and QT intervals. The semi-automatic approach used for determination of the fiducial points provided an automatic pre-assessment using a computer algorithm, which was reviewed by a specialist and adjusted if necessary. This review was performed blinded with regard to treatment and time point.
Data from four cardiac cycles per ECG were averaged. A population heart rate-corrected QT interval (QTcN) was derived by determining the exponent δ of the relationship: QT ~ (1000 / RR)^δ (where δ is the regression effect of the covariate) using a linear mixed model on log-transformed RR and QT data (measured in ms). Data from triplicate ECGs were then averaged for each time point.
The primary endpoint was the mean change from baseline (MCfB) in QTcN which was the mean QTcN derived from ECGs obtained 1–4 hours post-dose minus mean QTcN from baseline ECGs obtained pre-dose at each visit. Plasma concentrations of both empagliflozin and moxifloxacin were expected to reach peak levels within this three-hour window, ensuring the most relevant levels of drug exposure.
(§1) Secondary endpoints were the changes from period baseline in QTcN at any time point between 0.5–24 hours after dosing. In addition, the MCfB 2–4 hours after dosing (for assessment of the moxifloxacin effect), and the MCfB of all ECGs taken 0.5–24 hours after dosing were evaluated. Safety and tolerability were evaluated based on physical examination, vital signs, ECG, clinical laboratory tests, adverse events (AEs) and the physician’s assessment of global tolerability.
Briefly, the primary analysis compared changes in the primary endpoint (QTcN MCfB over 1–4 hours) using an analysis of covariance (ANCOVA) model with ‘sequence’, ‘period’ and ‘treatment’ as fixed effects, ‘subjects nested within sequences’ as a random effect, and ‘pre-dose baseline’ as a covariate. Analyses were performed using pair-wise comparisons of the trial treatments. The saturated repeated measurements crossover (RMC) model with unstructured covariance using pair-wise comparisons of the trial treatments was used to evaluate changes from baseline in QTcN at any time point between 0.5–24 hours after dosing. […] For descriptive statistics and the exposure-response analysis, the changes from baseline in QTcN of the placebo periods were averaged prior to the derivation of the placebo corrected MCfB.
In agreement with ICH E14, all tests were performed one-sided against the threshold level of regulatory concern of 10 ms with type-I error of α=5%, which is statistically equivalent to the calculation of two-sided 90% confidence intervals for the adjusted mean estimates. […]

[2] = Earlier single-dose pharmacokinetic study of empagliflozin in healthy volunteers; assay type: in vivo, human; conditions: 200 mg versus 25 mg; based on ref 10
[3] = test system: healthy volunteers; experiment: Safety and tolerability (adverse events) in the TQT study; assay type: in vivo, human
Description: as §1
Categorical endpoints such as AEs, cardiologic assessments and occurrence of ECG intervals beyond thresholds of regulatory concern (e.g. QTc >450 ms) were analysed based on incidence rates adjusted for the number of periods in which the treatment was given. Additionally, the analysis of such events in periods with any of the two doses of empagliflozin compared with the two placebo periods provides a direct comparison of incidence rates. All analyses were performed on the “full analysis set”, which comprised all recorded data of all subjects who received at least one dose of study treatment and had at least one ECG endpoint assessment at baseline and post treatment. No imputation for missing data was planned or performed.

[4] = test system: human ether-a-go-go related gene (hERG)-mediated potassium current; parameters: method as in unpublished data; conditions: transfected HEK293 cells; ref unpublished data; cited from earlier work
[5] = test system: guinea pig papillary muscle; parameters: method as in unpublished data; conditions: empagliflozin doses of ≥10 μM (so in the source); ref unpublished data; cited from earlier work
[6] = Empagliflozin plasma pharmacokinetics (HPLC-MS/MS) in the TQT study; assay type: in vivo, human; conditions: for Tmax / AUC(0-t) / Cmax: human; for Tmax: po, read-out: tmax, median; for AUC(0-t): read-out: AUC0−tz, gMean; for Cmax: read-out: Cmax, gMean
Description: Blood samples for pharmacokinetic measurements were taken one hour before drug administration and at the same post-dose time points as ECG measurements, except for the moxifloxacin periods. Empagliflozin concentrations in plasma were determined using a validated high performance liquid chromatography, tandem mass spectrometry (HPLC-MS/MS) assay with a lower limit of quantification of 1.11 nmol/L (0.5 ng/mL). Results were calculated using peak area ratios and calibration curves were created using weighted (1/x2) quadratic regression. […] Pharmacokinetic parameters included Cmax, tmax which were determined directly from the plasma concentration-time profiles of each, and area under the plasma concentration curve from zero to the last quantifiable time point (AUC0–tz), calculated using the linear trapezoidal method for ascending concentrations and the log trapezoidal method for descending concentrations. Pharmacokinetic parameters were determined using WinNonlin™ software v5.2 (Pharsight Corporation, Mountain View, California, USA).

[7] = parameters: method as in PMID 27121669; conditions: cited from earlier work; for Cmax: read-out: Expected mean Cmax
[8] = test system: healthy volunteers; parameters: method as in PMID 19238652, PMID 15165918, PMID 15903123, PMID 11180026; conditions: moxifloxacin 400 mg; cited from earlier work
[9] = empagliflozin 25 mg, 1-4 hours after administration
[10] = empagliflozin 200 mg, 1-4 hours after administration
[11] = empagliflozin 25 mg single oral dose, plasma, n=28
[12] = empagliflozin 200 mg single oral dose, plasma, n=30
[13] = single oral dose of 25 mg, healthy volunteers
[14] = moxifloxacin 400 mg, 2-4 hours after administration

**Q.** Which results are given for `OC[C@H]1O[C@@H](c2ccc(Cl)c(Cc3ccc(O[C@H]4CCOC4)cc3)c2)[C@H](O)[C@@H](O)[C@@H]1O` [Empagliflozin, empagliflozin]?
**A.** Difference from placebo in mean QTcN change from baseline, mean (SE) ([1]; 25 mg empagliflozin, primary analysis model with placebo period 1 only): 0.2 (0.9) ms; Difference from placebo in mean QTcN change from baseline, mean (SE) ([1]; 25 mg empagliflozin, primary analysis model with placebo period 2 only): 0.6 (1.0) ms; Difference from placebo in mean QTcN change from baseline, mean (SE) ([1]; 200 mg empagliflozin, primary analysis model with placebo period 1 only): -0.5 (0.8) ms; Difference from placebo in mean QTcN change from baseline, mean (SE) ([1]; 200 mg empagliflozin, primary analysis model with placebo period 2 only): 0.1 (0.8) ms; Slope estimates of exposure-response relationship between empagliflozin and heart rate ([1]; both doses (25 mg and 200 mg), CIs include zero): slope estimates close to zero; Range of adjusted means of placebo-corrected heart rate change from baseline over the time course ([1]; both empagliflozin doses (25 mg and 200 mg)): -1.2 to 1.5 bpm; 90% CIs of placebo-corrected heart rate change from baseline over the time course ([1]; both empagliflozin doses (25 mg and 200 mg), all CIs within): -3 to 3 bpm; Intercept of exposure-response analysis of placebo-corrected QTcN change from baseline ([1]; empagliflozin 25 mg): 0.35 ms; Slope (estimate) of exposure-response analysis of placebo-corrected QTcN change from baseline ([1]; empagliflozin 25 mg): -0.0007 ms/(nmol/L); QTcN mean change from baseline: ΔQTcN, adjusted mean (SE) ([1]; empagliflozin 25 mg single oral dose, 1-4 hours after administration, n=28): 4.3 (1.1) ms; Placebo-corrected MCfB in QTcN from all ECGs (90% CI) ([1]; empagliflozin 25 mg): 0.7 (90% CI: -0.4, 1.7) ms; Volunteers exceeding the QTcN threshold of 450 ms ([1]; empagliflozin 25 mg, 0.5-24 hours post-dose, one volunteer): 3.6%; Difference from placebo: ΔΔHR, adjusted mean (SE) [1, 9]: -0.9 (0.5) bpm; HR mean change from baseline: ΔHR, adjusted mean (SE) [1, 9]: -1.2 (0.5) bpm; Difference from placebo: ΔΔQTcN (placebo-corrected MCfB in QTcN), adjusted mean ([1]; empagliflozin 25 mg, 1-4 hours after dosing, both placebo periods): 0.6 (0.8) ms; Difference from placebo: ΔΔQTcN (placebo-corrected MCfB in QTcN), adjusted mean ([1]; empagliflozin 25 mg, 1-4 hours after dosing, both placebo periods, listed as empagliflozin): 0.6 (90% CI: -0.7, 1.9) ms and 0.6 (90% confidence interval [CI]: -0.7, 1.9) ms; Maximum upper CI of placebo-corrected QTcN change from baseline over the time course ([1]; empagliflozin 25 mg): 4.7 ms; Predicted value of placebo-corrected change from baseline QTcN at gMean of Cmax, estimate ([1]; empagliflozin 25 mg, at gMean Cmax 768 nmol/L): -0.20 ms; Range of adjusted means of placebo-corrected QTcN change from baseline over the time course ([1]; empagliflozin 25 mg): -2.7 to 2.2 ms; Intercept of exposure-response analysis of placebo-corrected QTcN change from baseline ([1]; empagliflozin 200 mg): -0.60 ms; Slope (estimate) of exposure-response analysis of placebo-corrected QTcN change from baseline ([1]; empagliflozin 200 mg): -0.0000 ms/(nmol/L); QTcN mean change from baseline: ΔQTcN, adjusted mean (SE) ([1]; empagliflozin 200 mg single oral dose, 1-4 hours after administration, n=30): 3.4 (0.9) ms; Placebo-corrected MCfB in QTcN from all ECGs (90% CI) ([1]; empagliflozin 200 mg): -0.2 (-1.2, 0.9) ms; Volunteers exceeding the QTcN threshold of 450 ms ([1]; empagliflozin 200 mg, 0.5-24 hours post-dose, two volunteers): 6.7%; Difference from placebo: ΔΔHR, adjusted mean (SE) [1, 10]: 0.0 (0.5) bpm; HR mean change from baseline: ΔHR, adjusted mean (SE) [1, 10]: -0.3 (0.5) bpm; Difference from placebo: ΔΔQTcN (placebo-corrected MCfB in QTcN), adjusted mean ([1]; empagliflozin 200 mg, 1-4 hours after dosing, both placebo periods): -0.2 (0.7) ms; Difference from placebo: ΔΔQTcN (placebo-corrected MCfB in QTcN), adjusted mean ([1]; empagliflozin 200 mg, 1-4 hours after dosing, both placebo periods, listed as empagliflozin): -0.2 (-1.4, 0.9) ms; Maximum upper CI of placebo-corrected QTcN change from baseline over the time course ([1]; empagliflozin 200 mg): 3.5 ms; Predicted value of placebo-corrected change from baseline QTcN at gMean of Cmax, estimate ([1]; empagliflozin 200 mg, at gMean Cmax 4860 nmol/L): -0.64 ms; Range of adjusted means of placebo-corrected QTcN change from baseline over the time course ([1]; empagliflozin 200 mg): -1.8 to 1.6 ms; Cmax ratio supratherapeutic dose versus therapeutic dose [2]: ~ 7 fold; Volunteers experiencing AEs ([3]; human, in vivo): 23.3%; Interaction with hERG-mediated potassium current [4]: No relevant interactions; Effect on action potential configuration or contractile function [5]: no effect on action potentials; Dose proportionality of empagliflozin exposure ([6]; 25 mg and 200 mg single doses): increased approximately dose proportionally; tmax, median [6, 11]: 1.5 h; Tmax ([6]; plasma, 25 mg, empagliflozin 25 mg single oral dose, plasma, n=28): ~1.5 h; Tmax ([6]; plasma, 200 mg, empagliflozin 200 mg single oral dose, plasma, n=30): ~1.8 h; AUC(0-t) [6, 11]: 4.86 µM·h; Cmax [6, 11]: 768 nM; AUC(0-t) [6, 12]: 36.4 µM·h; Cmax [6, 12]: 4860 nM; Effect of food on drug exposure [7]: no clinically relevant effects of food on drug exposure; Terminal elimination half-life ([7]; doses ≥10 mg): 10 to 13 h; Time to peak levels ([7]; single doses of empagliflozin (≥800 mg as printed)): 1.5 to 2.5 h; Mean tmax [7, 13]: 2.2 h; Cmax [7, 13]: 505 nM; Cmax ([7]; single oral dose of 200 mg, healthy volunteers): 3490 nM

**Q.** Which “Number of volunteers with a change in QTcN more than 30 ms” value ([1]; moxifloxacin 400 mg) does the source give for `COc1c(N2C[C@@H]3CCCN[C@@H]3C2)c(F)cc2c(=O)c(C(=O)O)cn(C3CC3)c12` [Moxifloxacin, moxifloxacin, reference compound] here?
**A.** Five

**Q.** What about the “QTcN mean change from baseline: ΔQTcN, adjusted mean (SE)” value ([1]; moxifloxacin 400 mg single dose, open-label, 2-4 hours after administration, n=29) of the same molecule?
**A.** 16.0 (1.2) ms

**Q.** What about the “Volunteers exceeding the QTcN threshold of 450 ms” value ([1]; moxifloxacin 400 mg, 0.5-6 hours post-dose, two volunteers) of the same molecule?
**A.** 6.9%

**Q.** What about the “Difference from placebo: ΔΔHR, adjusted mean (SE)” value [1, 14] of the same molecule?
**A.** 2.2 (0.6) bpm

**Q.** What about the “HR mean change from baseline: ΔHR, adjusted mean (SE)” value [1, 14] of the same molecule?
**A.** 2.0 (0.6) bpm

**Q.** What about the “Difference from placebo: ΔΔQTcN (placebo-corrected MCfB in QTcN), adjusted mean” value ([1]; moxifloxacin 400 mg, 2-4 hours post-dose, assay sensitivity) of the same molecule?
**A.** 12.4 (1.0) ms

**Q.** What about the “Difference from placebo: ΔΔQTcN (placebo-corrected MCfB in QTcN), adjusted mean” value ([1]; moxifloxacin 400 mg, 2-4 hours post-dose, assay sensitivity, listed as moxifloxacin) of the same molecule?
**A.** 12.4 (10.7, 14.1) ms

**Q.** What about the “Serious AE leading to study discontinuation” value ([3]; moxifloxacin, one participant, not considered related to study medication) of the same molecule?
**A.** fatal car accident

**Q.** What about the “Prolongation of heart rate-corrected QT interval compared to placebo” value [8] of the same molecule?
**A.** 6 to 15 ms
